Results as given in patent US10307413B2, “Tetrahydro- and dihydro-isoquinoline PRMT5 inhibitors and uses thereof” (Epizyme, Inc., priority 2013, dated 2019).
Where two headings read alike, the source gives them in different places.

How the values were obtained:
[1] = system: symmetric di-methyl arginine in Z-138 cells; assay: Z-138 Methylation Assay (In Cell Western for symmetric di-methyl arginine and DNA content); assay type: cell-based; settings: Homo sapiens, read-out: ICW EC50
Summary of the method: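 Z-138 cells (50,000 cells/mL) treated with compound 96 h at 37 °C, then fixed and stained for symmetric di-methyl arginine (800 nm) with DRAQ5 DNA counterstain (700 nm) on Licor Odyssey.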

PRMT5/MEP50 = PRMT5/MEP50 (Homo sapiens (Human), UniProt O14744); assay: PRMT5 Biochemical Assay (PRMT5/MEP50 enzyme assay on peptide substrate, 3H-SAM Flashplate)
Summary of the method: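 Radiometric methylation of a biotin-tagged H4(1-15) peptide by human PRMT5/MEP50 from baculovirus/Sf9, with ³H-SAM incorporation read on streptavidin Flashplates. Buffer: Bicine pH 7.6, TCEP, BSG, Tween20; compound preincubated 30 min at 25 °C; stopped with 600 µM final unlabeled SAM. DMSO and SAH controls; IC50 from fitted % inhibition.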

Z-138 cell line = assay: Z-138 Proliferation Assay (Cell Titer Glo, 5 days); assay type: cell-based; settings: Homo sapiens, 120 h, Z-138 cells, 5 days, read-out: Proliferation EC50
Summary of the method: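 Z-138 cells exposed 5 days at 37 °C, 5% CO2 to nine-point 3-fold dilutions (final top 20 μM, 0.2% DMSO), in triplicate. Viability read as ATP by CellTiter-Glo luminescence; IC50 from 4-parameter fit of normalized dose-response curves.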

Sequence of PRMT5/MEP50 (O14744 other isoform, or with tags, fused parts or gaps): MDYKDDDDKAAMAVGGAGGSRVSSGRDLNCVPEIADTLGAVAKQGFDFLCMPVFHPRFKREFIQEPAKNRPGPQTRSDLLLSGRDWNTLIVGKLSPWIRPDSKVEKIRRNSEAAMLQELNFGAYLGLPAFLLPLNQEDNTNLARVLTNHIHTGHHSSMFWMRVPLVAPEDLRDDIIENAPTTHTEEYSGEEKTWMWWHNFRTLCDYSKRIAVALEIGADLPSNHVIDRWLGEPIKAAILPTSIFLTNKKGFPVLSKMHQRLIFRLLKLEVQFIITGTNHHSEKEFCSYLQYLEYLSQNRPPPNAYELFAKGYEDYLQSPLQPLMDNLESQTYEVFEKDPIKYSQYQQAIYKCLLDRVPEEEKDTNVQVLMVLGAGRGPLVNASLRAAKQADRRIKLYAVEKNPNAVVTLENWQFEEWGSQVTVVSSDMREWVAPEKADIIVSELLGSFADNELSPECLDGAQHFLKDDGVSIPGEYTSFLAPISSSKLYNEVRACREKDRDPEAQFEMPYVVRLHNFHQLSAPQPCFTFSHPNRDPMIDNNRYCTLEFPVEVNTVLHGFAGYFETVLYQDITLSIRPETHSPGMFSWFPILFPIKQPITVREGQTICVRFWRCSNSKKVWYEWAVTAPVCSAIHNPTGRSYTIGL
Sequence of PRMT5/MEP50 (Q9BQA1 other isoform, or with tags, fused parts or gaps partner): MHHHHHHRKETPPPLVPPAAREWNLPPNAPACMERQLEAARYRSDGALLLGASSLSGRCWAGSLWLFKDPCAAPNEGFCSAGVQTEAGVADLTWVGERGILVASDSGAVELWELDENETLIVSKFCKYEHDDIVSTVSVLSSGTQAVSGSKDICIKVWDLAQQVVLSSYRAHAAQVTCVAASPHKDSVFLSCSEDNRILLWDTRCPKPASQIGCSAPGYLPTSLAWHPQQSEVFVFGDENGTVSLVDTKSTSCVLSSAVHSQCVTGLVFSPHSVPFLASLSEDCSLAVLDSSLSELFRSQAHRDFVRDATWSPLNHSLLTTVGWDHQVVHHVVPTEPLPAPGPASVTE

| SMILES | EC50 ([1]; In Cell Western methylation) | IC50 (PRMT5/MEP50; PRMT5 biochemical assay) | EC50 [1] | IC50 (PRMT5/MEP50) | EC50 (Z-138 cell line; Cell Titer Glo) | EC50 (Z-138 cell line) |
| --- | --- | --- | --- | --- | --- | --- |
| N[C@H]1CC[C@@H](Nc2cc(C(=O)NC[C@H](O)CN3CCc4ccccc4C3)ncn2)CC1 [Compound 591] | < 100 nM | < 100 nM | – | – | 1000 to 10000 nM | – |
| O=C(NC[C@H](O)CN1CCc2ccccc2C1)c1cn2nc(Cl)ccc2n1 [Compound 404] | 101 to 1000 nM | < 100 nM | – | – | 10000 to 50000 nM | – |
| Cc1cnc(NC2CCNC2)cc1C(=O)NC[C@H](O)CN1CCc2ccccc2C1 (stereo partly drawn) [Compound 400] | > 1000 nM | < 100 nM | – | – | > 20000 nM | – |
| COCCN(C)c1cc(NC2CCN(C(C)=O)CC2)cc(C(=O)NC[C@H](O)CN2CCc3ccccc3C2)n1 [Compound 672] | < 100 nM | < 100 nM | – | – | < 100 nM | – |
| CC(=O)N1CCC(Nc2cc(C(=O)NCC(C)CN3CCc4ccccc4C3)ccn2)CC1 (stereo not drawn) [Compound 660] | < 100 nM | < 100 nM | – | – | 101 to 1000 nM | – |
| CC(=O)N1CCN(c2cc(C(=O)NC[C@H](O)CN3CCc4ccccc4C3)cc(NC3CCC3)n2)CC1 [Compound 398] | < 100 nM | < 100 nM | – | – | < 100 nM | – |
| CCC(=O)N1CC(Nc2cc(C(=O)NC[C@H](O)CN3CCc4ccccc4C3)ncn2)C1 [Compound 574] | < 100 nM | < 100 nM | – | – | < 100 nM | – |
| CO[C@H]1C[C@@H](Nc2cc(C(=O)NC[C@H](O)CN3CCc4ccccc4C3)ncn2)C1 [Compound 563] | < 100 nM | < 100 nM | – | – | 101 to 1000 nM | – |
| O=C(NC[C@H](O)CN1CCc2ccccc2C1)c1cc(NC2CCC2)nc(N2CCCCC2)c1 [Compound 375] | – | – | < 100 nM | < 100 nM | – | 101 to 1000 nM |
| O=C(NC[C@H](O)CN1CCc2ccccc2C1)c1cnnc(NC2CCNC2)c1 (stereo partly drawn) [Compound 686] | > 1000 nM | < 100 nM | – | – | > 5000 nM | – |
| NC(=O)c1ccc(C(=O)NCC(O)CN2CCc3ccccc3C2)cc1 (stereo not drawn) [Compound 22] | – | – | 101 to 1000 nM | 101 to 1000 nM | – | > 20000 nM |
| CN1CCC(Nc2cc(C(=O)NC[C@H](O)CN3CCc4ccccc4C3)cnn2)C1 (stereo partly drawn) [Compound 689] | 101 to 1000 nM | < 100 nM | – | – | > 5000 nM | – |
| NC(=O)CN1CCC(Nc2cc(C(=O)NC[C@H](O)CN3CCc4ccccc4C3)ncn2)CC1 [Compound 532] | < 100 nM | < 100 nM | – | – | 101 to 1000 nM | – |
| CC(O)(CNC(=O)c1cc(NC2CCN(C(=O)C3CC3)CC2)ncn1)CN1CCc2ccccc2C1 (stereo not drawn) [Compound 650] | < 100 nM | < 100 nM | – | – | 1000 to 10000 nM | – |
| COc1cc(C(=O)NC[C@H](O)CN2CCc3ccccc3C2)cc(NC2CCN(C(C)=O)CC2)n1 [Compound 627] | < 100 nM | < 100 nM | – | – | < 100 nM | – |
| CNC(=O)[C@H]1C[C@@H](Nc2cc(C(=O)NC[C@H](O)CN3CCc4ccccc4C3)ncn2)C1 [Compound 513] | < 100 nM | < 100 nM | – | – | 101 to 1000 nM | – |
| CC(=O)N1CC(Nc2cc(C(=O)NCCCN3CCc4ccccc4C3)ncn2)C1 [Compound 652] | 101 to 1000 nM | < 100 nM | – | – | > 5000 nM | – |
| CC(C)(C)C(=O)N1CC(Nc2cc(C(=O)NC[C@H](O)CN3CCc4ccccc4C3)ncn2)C1 [Compound 424] | < 100 nM | < 100 nM | – | – | 101 to 1000 nM | – |
| CN(C)C(=O)CN1CCC(Nc2cc(C(=O)NC[C@H](O)CN3CCc4ccccc4C3)ncn2)CC1 [Compound 567] | < 100 nM | < 100 nM | – | – | 101 to 1000 nM | – |
| CN(CCN)c1nc(NC2CNC2)cc(C(=O)NC[C@H](O)CN2CCc3ccccc3C2)n1 [Compound 481] | 101 to 1000 nM | < 100 nM | – | – | 1000 to 10000 nM | – |
| O=C(NC[C@H](O)CN1CCc2ccccc2C1)c1cc(NC2CNC2)nc(N2CCOCC2)n1 [Compound 447] | < 100 nM | < 100 nM | – | – | 1000 to 10000 nM | – |
| CN1CC(Nc2ccnc(C(=O)NC[C@H](O)CN3CCc4ccccc4C3)c2)C1 [Compound 575] | < 100 nM | < 100 nM | – | – | > 5000 nM | – |
| CC(=O)N1CCC(Nc2ccnc(C(=O)NC[C@H](O)CN3CCc4ccccc4C3)c2)CC1 [Compound 551] | < 100 nM | < 100 nM | – | – | < 100 nM | – |
| O=C(NCC(O)CN1CCc2ccccc2C1)c1cccc(C2CCCN2)c1 (stereo not drawn) [Compound 42, N-(3-(3,4-dihydroisoquinolin-2(1H)-yl)-2-hydroxypropyl)-3-(pyrrolidin-2-yl)benzamide] | – | – | 1000 to 10000 nM | 101 to 1000 nM | – | > 20000 nM |
| Cc1cnc(NC2CCN(C)C2)cc1C(=O)NC[C@H](O)CN1CCc2ccccc2C1 (stereo partly drawn) [Compound 401] | 101 to 1000 nM | < 100 nM | – | – | 1000 to 10000 nM | – |
| CSCCN1CC(Nc2cc(C(=O)NC[C@H](O)CN3CCc4ccccc4C3)ncn2)C1 [Compound 568] | 101 to 1000 nM | < 100 nM | – | – | 1000 to 10000 nM | – |
| Cc1ccc2c(c1)CN(C[C@@H](O)CNC(=O)c1cc(NC3COC3)ncn1)CC2 [Compound 666] | 101 to 1000 nM | 101 to 1000 nM | – | – | > 5000 nM | – |

Continued, in another order:

| EC50 ([1]; In Cell Western methylation) | IC50 (PRMT5/MEP50; PRMT5 biochemical assay) | EC50 [1] | IC50 (PRMT5/MEP50) | SMILES | EC50 (Z-138 cell line; Cell Titer Glo) | EC50 (Z-138 cell line) |
| --- | --- | --- | --- | --- | --- | --- |
| < 100 nM | < 100 nM | – | – | CC(C)CC(=O)N1CC(Nc2cc(C(=O)NC[C@H](O)CN3CCc4ccccc4C3)ccn2)C1 [Compound 504] | < 100 nM | – |
| < 100 nM | < 100 nM | – | – | CN[C@H]1CC[C@H](Nc2cc(C(=O)NC[C@H](O)CN3CCc4ccccc4C3)ncn2)CC1 [Compound 661] | 101 to 1000 nM | – |
| < 100 nM | < 100 nM | – | – | CC(=O)N1CCC(Nc2cc(C(=O)NC[C@H](O)CN3CCc4ccccc4C3)nc(N3CCOCC3)c2)CC1 [Compound 678] | 101 to 1000 nM | – |
| > 1000 nM | 1000 to 10000 nM | – | – | CN1CCC(Nc2cc(C(=O)NCC(C)(O)CN3CCc4ccccc4C3)ncn2)CC1 (stereo not drawn) [Compound 648] | > 5000 nM | – |
| < 100 nM | < 100 nM | – | – | CN1CCCCC1CNc1cc(C(=O)NC[C@H](O)CN2CCc3ccccc3C2)ccn1 (stereo partly drawn) [Compound 411] | 101 to 1000 nM | – |
| < 100 nM | < 100 nM | – | – | CN(C)[C@H]1CC[C@H](Nc2cc(C(=O)NC[C@H](O)CN3CCc4ccccc4C3)ncn2)CC1 [Compound 593] | 101 to 1000 nM | – |
| < 100 nM | < 100 nM | – | – | O=C(NC[C@H](O)CN1CCc2ccccc2C1)c1cc(N[C@H]2C[C@@H](O)C2)ncn1 [Compound 491] | 101 to 1000 nM | – |
| – | – | < 100 nM | < 100 nM | CC(C)N1CCN(c2cc(C(=O)NC[C@H](O)CN3CCc4ccccc4C3)cc(NC3CCC3)n2)CC1 [Compound 397] | – | < 100 nM |
| 101 to 1000 nM | < 100 nM | – | – | CCOc1nc(NC2CNC2)cc(C(=O)NC[C@H](O)CN2CCc3ccccc3C2)n1 [Compound 486] | 1000 to 10000 nM | – |
| < 100 nM | < 100 nM | – | – | CC(=O)N1CC(Nc2cc(C(=O)NC[C@H](O)CN3CCc4ccccc4C3C)ncn2)C1 (stereo partly drawn) [Compound 583] | 1000 to 10000 nM | – |
| < 100 nM | < 100 nM | – | – | O=C(NC[C@H](O)CN1CCc2ccccc2C1)c1ncnc(NC2COC2)c1Cl [Compound 437] | 1000 to 10000 nM | – |
| < 100 nM | < 100 nM | – | – | O=C(NC[C@H](O)CN1CCc2ccccc2C1)c1ccnc(NC2CCN(C(=O)C3CC3)CC2)c1 [Compound 472] | < 100 nM | – |
| – | – | < 100 nM | < 100 nM | O=C(NC[C@H](O)CN1CCc2ccccc2C1)c1ccc2cc(OCCNCCO)ccc2c1 [Compound 368] | – | 1000 to 10000 nM |
| < 100 nM | < 100 nM | – | – | CC(C)(C)C(=O)N1CCC(Nc2cc(C(=O)NC[C@H](O)CN3CCc4ccccc4C3)ccn2)CC1 [Compound 470] | < 100 nM | – |
| < 100 nM | < 100 nM | – | – | O=C(NC[C@H](O)CN1CCc2ccccc2C1)c1cc(N[C@H]2C[C@H](C(=O)N3CCCCC3)C2)ncn1 [Compound 511] | < 100 nM | – |
| < 100 nM | < 100 nM | – | – | O=C(NC[C@H](O)CN1CCc2ccccc2C1)c1cc(NC2CN(C(=O)C3CC3)C2)ncn1 [Compound 425] | < 100 nM | – |
| < 100 nM | < 100 nM | – | – | CC(=O)N1CCC(Nc2cc(C(=O)NC[C@H](O)CN3CCc4ccccc4C3)nc(N3CCN(C(C)=O)CC3)c2)CC1 [Compound 679] | 101 to 1000 nM | – |
| < 100 nM | < 100 nM | – | – | CNC(=O)[C@H]1CC[C@@H](Nc2cc(C(=O)NC[C@H](O)CN3CCc4ccccc4C3)ncn2)CC1 [Compound 597] | 101 to 1000 nM | – |
| > 1000 nM | 101 to 1000 nM | – | – | O=C(NC[C@H](O)CN1CCc2ccccc2C1)C1=CC2=NC(CO)CN2C=N1 (stereo partly drawn) [Compound 473] | > 20000 nM | – |
| – | – | 101 to 1000 nM | 101 to 1000 nM | O=C(NCC(O)CN1CCc2ccccc2C1)c1cccnc1 (stereo not drawn) [Compound 18] | – | 10000 to 50000 nM |
| < 100 nM | < 100 nM | – | – | O=C(NC[C@H](O)CN1CCc2ccccc2C1)c1cc(N[C@H]2C[C@@H](C(=O)N3CCCCC3)C2)ncn1 [Compound 519] | 101 to 1000 nM | – |
| < 100 nM | < 100 nM | – | – | CC(NC(=O)c1cc(NC2COC2)ncn1)[C@@H](O)CN1CCc2ccccc2C1 (stereo partly drawn) [Compound 492] | 1000 to 10000 nM | – |
| – | – | < 100 nM | < 100 nM | O=C(NC[C@H](O)CN1CCc2ccccc2C1)c1ccc(OCCCN2CCCC2)cc1 [Compound 372] | – | 101 to 1000 nM |
